From US20230338337A1, “BIOMARKERS FOR CANCER THERAPY USING MDM2 ANTAGONISTS” (OTSUKA PHARMACEUTICAL CO., LTD., priority 2019, published 2023)
Where two headings read alike, the source gives them in different places.

What was measured:
[1] = tested on: SJSA-1 (p53 wild-type, MDM2 amplified osteosarcoma); experiment: Protocol A: SRB growth inhibition assay; conditions: read-out: SJSA-1 IC50 (μM) (Protocol A)
SJSA-1 = experiment: Protocol B: CellTiter-Glo cell viability assay
[2] = target: MDM2-p53 interaction (in vitro translated MDM2) (Homo sapiens (Human), UniProt Q00987); experiment: MDM2-p53 interaction 96-well plate binding assay (ELISA); conditions: for MDM2 % inhibition at 0.0010: at 0.0010 μM
OCI-AML3 cells = experiment: Induction of apoptosis by cleaved caspase-3 cytometry; assay type: cell-based; conditions: 0.1 μM COMPOUND 1 with 1 μM ASTX660 and 1 ng/ml TNF-alpha, 72 h
SN40R2 = experiment: Protocol B: CellTiter-Glo cell viability assay; conditions: read-out: SN40R2 (Protocol B) % inhibition at 10, Protocol B
[3] = tested on: SN40R2 (p53 mutated, MDM2 amplified osteosarcoma); experiment: Protocol A: SRB growth inhibition assay; conditions: read-out: SN40R2 IC50 (μM) (Protocol A)
[4] = tested on: multiple myeloma (MM) cells; conditions: in vitro and ex vivo; cited from earlier work
human leukaemia models = conditions: mice; by inducing MDM2 degradation; cited from earlier work
cancer cell lines = conditions: cited from earlier work
tumour growth = conditions: cited from earlier work
[5] = read-out: SJSA1 IC50 (μM) (Protocol B), Protocol B
[6] = Homo sapiens, SJSA-1, read-out: SJSA1 IC50 (μM) (Protocol B), Protocol B

Chain of MDM2-p53 interaction (in vitro translated MDM2) (Q00987 whole entry): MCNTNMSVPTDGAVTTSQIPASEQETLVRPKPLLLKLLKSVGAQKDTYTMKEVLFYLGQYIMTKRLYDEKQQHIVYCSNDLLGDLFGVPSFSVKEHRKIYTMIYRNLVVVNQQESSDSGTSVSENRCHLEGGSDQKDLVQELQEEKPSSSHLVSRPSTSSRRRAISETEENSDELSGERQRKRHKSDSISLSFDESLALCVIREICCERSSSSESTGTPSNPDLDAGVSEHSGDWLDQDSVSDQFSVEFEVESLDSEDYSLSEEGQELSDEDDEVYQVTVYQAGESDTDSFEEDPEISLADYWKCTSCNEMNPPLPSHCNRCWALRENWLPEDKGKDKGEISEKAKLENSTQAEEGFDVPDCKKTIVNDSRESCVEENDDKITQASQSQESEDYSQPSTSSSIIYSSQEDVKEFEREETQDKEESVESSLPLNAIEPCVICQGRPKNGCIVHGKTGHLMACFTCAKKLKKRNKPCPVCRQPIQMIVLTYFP

IC50 [1] [µM] | IC50 (SJSA-1; [5]) [µM] | MDM2 % inhibition at 0.0010 [2] [%@0.0010] | Compound | also measured
– | – | – | C[C@@H]1CN(CC(=O)N2CC(C)(C)c3nc(CO)c(Cc4ccc(F)cc4)cc32)[C@@H](CN2CCOC[C@H]2C)CN1 [ASTX660, 1-{6-[(4-fluorophenyl)methyl]-5-(hydroxymethyl)-3,3-dimethyl-1H,2H,3H-pyrrolo[3,2-b]pyridin-1-yl}-2-[(2R,5R)-5-methyl-2-{[(3R)-3-methylmorpholin-4-yl]methyl}piperazin-1-yl]ethan-1-one, reference compound] | level of apoptosis (cleaved caspase-3) (OCI-AML3 cells): sensitises the OCI-AML3 line to apoptosis induction by COMPOUND 1
– | – | – | CCC(O)(c1cc(F)c2c(c1)C(=O)N(Cc1ccc(C#N)cn1)[C@@]2(OCC1(F)COC1)c1ccc(Cl)cc1)c1cn(C)cn1 (stereo partly drawn) [Example 435, 6-{[(1R)-1-(4-chlorophenyl)-7-fluoro-1-[(3-fluorooxetan-3-yl)methoxy]-5-[1-hydroxy-1-(1-methyl-1H-imidazol-4-yl)propyl]-3-oxo-2,3-dihydro-1H-isoindol-2-yl]methyl}pyridine-3-carbonitrile] | IC50 (SJSA-1; [6]): 0.015 µM; inhibition at 10 µM (SN40R2): 0%
– | – | – | CCC(O)(c1cc(F)c2c(c1)C(=O)N(Cc1ncc(Cl)cc1O)[C@@]2(OCCO)c1ccc(Cl)cc1)c1cn(C)cn1 (stereo partly drawn) [Example 443, (3R)-2-[(5-chloro-3-hydroxypyridin-2-yl)methyl]-3-(4-chlorophenyl)-4-fluoro-6-[1-hydroxy-1-(1-methyl-1H-imidazol-4-yl)propyl]-3-(2-hydroxyethoxy)-2,3-dihydro-1H-isoindol-1-one] | IC50 [3]: 38 µM; IC50 (SJSA-1; [6]): 0.093 µM; inhibition at 10 µM (SN40R2): 3%
– | – | – | CCC(O)(c1cc(F)c2c(c1)C(=O)N(Cc1ccc(C#N)cn1)[C@@]2(O[C@H]1CCOC1)c1ccc(Cl)cc1)C1(F)CCOCC1 (stereo partly drawn) [Example 445, 6-{[(1R)-1-(4-chlorophenyl)-7-fluoro-5-[1-(4-fluorooxan-4-yl)-1-hydroxypropyl]-3-oxo-1-[(3S)-oxolan-3-yloxy]-2,3-dihydro-1H-isoindol-2-yl]methyl}pyridine-3-carbonitrile] | inhibition at 10 µM (SN40R2): 16%
– | – | – | c1ccc2c(CCNc3ccc(Nc4ccncc4)cc3)c[nH]c2c1 [JNJ 26854165] | activity against multiple myeloma (MM) cells [4]: potent activity
– | – | – | O=C(O)C(F)(F)F.O=C1CCC(N2Cc3c(C#CCCCNC(=O)c4ccc(NC(=O)[C@@H]5NC6(CCCCC6)[C@@]6(C(=O)Nc7cc(Cl)ccc76)[C@H]5c5cccc(Cl)c5F)cc4)cccc3C2=O)C(=O)N1 (some centres unmarked) [LE-004] | growth inhibition in human leukaemia models (human leukaemia models): efficiently inhibited growth
– | – | – | CC(C)(C)C[C@@H]1N[C@@H](C(=O)N[C@H]2CC[C@H](O)CC2)[C@H](c2cccc(Cl)c2F)[C@]12C(=O)Nc1cc(Cl)ccc12 [MI-773] | cell growth inhibition (cancer cell lines): potently inhibits cell growth
– | – | – | COc1cc(C(N)=O)ccc1NC(=O)[C@@H]1N[C@@H](CC(C)(C)C)C2(C(=O)Nc3cc(Cl)ccc32)[C@H]1c1cccc(Cl)c1F (some centres unmarked) [RO-8994] | tumour growth inhibition (tumour growth): inhibit tumour growth
0.14 | 0.17 | 82 | (3R)-3-(4-chlorophenyl)-2-[(5-chloropyridin-2-yl)methyl]-4-fluoro-6-[1-(4-fluoropiperidin-4-yl)-1-hydroxypropyl]-3-[(3S)-oxolan-3-yloxy]-2,3-dihydro-1H-isoindol-1-one [Example 548] | –
0.22 | 0.082 | – | (3R)-3-(4-chlorophenyl)-2-[(5-chloropyrimidin-2-yl)methyl]-4-fluoro-3-[(3-fluorooxetan-3-yl)methoxy]-6-[1-hydroxy-1-(1-methylpiperidin-4-yl)ethyl]-2,3-dihydro-1H-isoindol-1-one [Example 558] | MDM2 % inhibition at 0.0030 ([2]; at 0.0030 μM): 53%@0.0030
0.023 | 0.0085 | 77 | (3R)-3-(4-chlorophenyl)-2-[(5-chloropyrimidin-2-yl)methyl]-4-fluoro-6-[1-(4-fluoro-1-methylpiperidin-4-yl)-1-hydroxypropyl]-3-[(3S)-oxolan-3-yloxy]-2,3-dihydro-1H-isoindol-1-one [Example 571] | –
0.028 | 0.02 | 79 | (3R)-3-(4-chlorophenyl)-2-[(5-chloropyrimidin-2-yl)methyl]-4-fluoro-6-[1-[4-fluoro-1-(oxetan-3-yl)piperidin-4-yl]-1-hydroxypropyl]-3-methoxy-2,3-dihydro-1H-isoindol-1-one [Example 552] | –
0.013 | 0.0091 | 86 | (3R)-3-(4-chlorophenyl)-2-[(5-chloropyrimidin-2-yl)methyl]-4-fluoro-6-[1-hydroxy-1-(1-methyl-1H-imidazol-4-yl)propyl]-3-{[1-(hydroxymethyl)cyclopropyl]methoxy}-2,3-dihydro-1H-isoindol-1-one [Example 477] | –
0.21 | 0.07 | 74 | (3R)-3-(4-chlorophenyl)-2-[(5-chloropyrimidin-2-yl)methyl]-4-fluoro-6-[1-hydroxy-1-(1-methylpiperidin-4-yl)ethyl]-3-{[1-(hydroxymethyl)cyclopropyl]methoxy}-2,3-dihydro-1H-isoindol-1-one [Example 554] | –
0.056 | 0.0064 | 91 | (3R)-3-(4-chlorophenyl)-2-[(5-chloropyrimidin-2-yl)methyl]-4-fluoro-6-[(1S)-1-hydroxy-1-(1-methylpiperidin-4-yl)propyl]-3-{[1-(hydroxymethyl)cyclopropyl]methoxy}-2,3-dihydro-1H-isoindol-1-one [Example 556] | –

Compound | IC50 [1] [µM] | IC50 (SJSA-1; [5]) [µM] | MDM2 % inhibition at 0.0010 [2] [%@0.0010] | also measured
6-{[(1R)-1-(4-chlorophenyl)-7-fluoro-5-{1-hydroxy-1-[trans-4-hydroxycyclohexyl]propyl}-3-oxo-1-[cis-3-hydroxycyclobutoxy]-2,3-dihydro-1H-isoindol-2-yl]methyl}pyridine-3-carbonitrile [Example 518] | 0.058 | 0.065 | 79 | –
CC(O)(c1cc(F)c2c(c1)C(=O)N(Cc1ncc(Cl)cn1)[C@@]2(OCC1(CO)CC1)c1ccc(Cl)cc1)[C@H]1CC[C@H](O)CC1 (stereo partly drawn) [Example 401, (3R)-3-(4-chlorophenyl)-2-[(5-chloropyrimidin-2-yl)methyl]-4-fluoro-6-{1-hydroxy-1-[trans-4-hydroxycyclohexyl]ethyl}-3-{[1-(hydroxymethyl)cyclopropyl]methoxy}-2,3-dihydro-1H-isoindol-1-one] | – | 0.0098 | – | inhibition at 10 µM (SN40R2): 6%
CCC(O)(c1cc(F)c2c(c1)C(=O)N(Cc1ccc(C#N)cn1)[C@@]2(O[C@H]1CCOC1)c1ccc(Cl)cc1)C1(F)CCOCC1 (stereo partly drawn) [Example 446, 6-{[(1R)-1-(4-chlorophenyl)-7-fluoro-5-[1-(4-fluorooxan-4-yl)-1-hydroxypropyl]-3-oxo-1-[(3S)-oxolan-3-yloxy]-2,3-dihydro-1H-isoindol-2-yl]methyl}pyridine-3-carbonitrile] | – | 0.023 | – | IC50 [3]: 29 µM
CCC(O)(CN1CCN(C)CC1)c1cc(F)c2c(c1)C(=O)N(Cc1ncc(Cl)cn1)[C@@]2(O[C@H]1CCOC1)c1ccc(Cl)cc1 (stereo partly drawn) [Example 522, (3R)-3-(4-chlorophenyl)-2-[(5-chloropyrimidin-2-yl)methyl]-4-fluoro-6-[2-hydroxy-1-(4-methylpiperazin-1-yl)butan-2-yl]-3-[(3S)-oxolan-3-yloxy]-2,3-dihydro-1H-isoindol-1-one] | – | 0.048 | – | inhibition at 10 µM (SN40R2): 24%
